One series is described as follows: The drug is tested on Eubacterium hallii strain: DSM3353 for biotransformation. The drug concentrations were measured before and after a 12-h incubation by liquid-chromatography-coupled mass spectrometry (LC–MS). The settings on record: anaerobutyricum hallii, 2 µM.
Turning to `COC(=O)[C@H]1[C@H]2C[C@@H]3c4[nH]c5cc(OC)ccc5c4CCN3C[C@H]2C[C@@H](OC(=O)c2cc(OC)c(OC)c(OC)c2)[C@@H]1OC` [RESERPINE], the “Bacterial Biotransformation” value was “Compound NOT metabolized”.

A further series can be described thus: The drug is tested on Subdoligranulum variabile strain: DSM15176 for biotransformation. The drug concentrations were measured before and after a 12-h incubation by liquid-chromatography-coupled mass spectrometry (LC–MS). The settings on record: 2 µM.
As to `CCCCC(=O)O[C@]1(C(=O)CO)[C@@H](C)C[C@H]2[C@@H]3CCC4=CC(=O)C=C[C@]4(C)[C@@]3(F)[C@@H](O)C[C@@]21C` [BETAMETHASONE VALERATE], the “Bacterial Biotransformation” value is given as “Compound metabolized”.

A short description of a further series: The drug is tested on Bacteroides sp. WH2 strain: WH2 for biotransformation. The drug concentrations were measured before and after a 12-h incubation by liquid-chromatography-coupled mass spectrometry (LC–MS). The settings on record: bacteroides sp. wh2, 12 h, 2 µM.
With `CCCCC(=O)O[C@]1(C(=O)CO)[C@@H](C)C[C@H]2[C@@H]3CCC4=CC(=O)C=C[C@]4(C)[C@@]3(F)[C@@H](O)C[C@@]21C` [BETAMETHASONE VALERATE], the “Bacterial Biotransformation” value is recorded as “Compound NOT metabolized”.
As for `COC(=O)[C@H]1[C@H]2C[C@@H]3c4[nH]c5cc(OC)ccc5c4CCN3C[C@H]2C[C@@H](OC(=O)c2cc(OC)c(OC)c(OC)c2)[C@@H]1OC` [RESERPINE], the “Bacterial Biotransformation” value is “Compound NOT metabolized”.

The next series can be described thus: The drug is tested on Bacteroides coprophilus strain: DSM18228 for biotransformation. The drug concentrations were measured before and after a 12-h incubation by liquid-chromatography-coupled mass spectrometry (LC–MS). The settings on record: 2 µM.
As for `COC(=O)[C@H]1[C@H]2C[C@@H]3c4[nH]c5cc(OC)ccc5c4CCN3C[C@H]2C[C@@H](OC(=O)c2cc(OC)c(OC)c(OC)c2)[C@@H]1OC` [RESERPINE], the “Bacterial Biotransformation” value is “Compound NOT metabolized”.

For the next series the following is noted: bacteroides eggerthii, 12 h, 2 µM.
Description: The drug is tested on Bacteroides eggerthii strain: DSM20697 for biotransformation. The drug concentrations were measured before and after a 12-h incubation by liquid-chromatography-coupled mass spectrometry (LC–MS)
`CCCCC(=O)O[C@]1(C(=O)CO)[C@@H](C)C[C@H]2[C@@H]3CCC4=CC(=O)C=C[C@]4(C)[C@@]3(F)[C@@H](O)C[C@@]21C` [BETAMETHASONE VALERATE]: the “Bacterial Biotransformation” value was “Compound metabolized”.
On the same count and under the same terms, to `COC(=O)[C@H]1[C@H]2C[C@@H]3c4[nH]c5cc(OC)ccc5c4CCN3C[C@H]2C[C@@H](OC(=O)c2cc(OC)c(OC)c(OC)c2)[C@@H]1OC` [RESERPINE] belongs “Compound NOT metabolized”.

The conditions of the next series: bacteroides thetaiotaomicron, 12 h, 2 µM.
Description: The drug is tested on Bacteroides thetaiotaomicron strain: 7330 for biotransformation. The drug concentrations were measured before and after a 12-h incubation by liquid-chromatography-coupled mass spectrometry (LC–MS)
Regarding `CCCCC(=O)O[C@]1(C(=O)CO)[C@@H](C)C[C@H]2[C@@H]3CCC4=CC(=O)C=C[C@]4(C)[C@@]3(F)[C@@H](O)C[C@@]21C` [BETAMETHASONE VALERATE], the “Bacterial Biotransformation” value is “Compound metabolized”.
Still for that read-out and setting: to `COC(=O)[C@H]1[C@H]2C[C@@H]3c4[nH]c5cc(OC)ccc5c4CCN3C[C@H]2C[C@@H](OC(=O)c2cc(OC)c(OC)c(OC)c2)[C@@H]1OC` [RESERPINE] belongs “Compound NOT metabolized”.

A further series can be described thus: The drug is tested on Bacteroides xylanisolvens strain: DSM18836 for biotransformation. The drug concentrations were measured before and after a 12-h incubation by liquid-chromatography-coupled mass spectrometry (LC–MS). The settings on record: 2 µM.
On to `CCCCC(=O)O[C@]1(C(=O)CO)[C@@H](C)C[C@H]2[C@@H]3CCC4=CC(=O)C=C[C@]4(C)[C@@]3(F)[C@@H](O)C[C@@]21C` [BETAMETHASONE VALERATE], for which the “Bacterial Biotransformation” value is reported as “Compound metabolized”.
Take `COC(=O)[C@H]1[C@H]2C[C@@H]3c4[nH]c5cc(OC)ccc5c4CCN3C[C@H]2C[C@@H](OC(=O)c2cc(OC)c(OC)c(OC)c2)[C@@H]1OC` [RESERPINE]: the “Bacterial Biotransformation” value was “Compound NOT metabolized”.

A further series is described as follows: The drug is tested on Bacteroides dorei strain: DSM17855 for biotransformation. The drug concentrations were measured before and after a 12-h incubation by liquid-chromatography-coupled mass spectrometry (LC–MS). The settings on record: phocaeicola dorei, 2 µM.
Regarding `CCCCC(=O)O[C@]1(C(=O)CO)[C@@H](C)C[C@H]2[C@@H]3CCC4=CC(=O)C=C[C@]4(C)[C@@]3(F)[C@@H](O)C[C@@]21C` [BETAMETHASONE VALERATE], the “Bacterial Biotransformation” value is listed as “Compound metabolized”.
As to `COC(=O)[C@H]1[C@H]2C[C@@H]3c4[nH]c5cc(OC)ccc5c4CCN3C[C@H]2C[C@@H](OC(=O)c2cc(OC)c(OC)c(OC)c2)[C@@H]1OC` [RESERPINE], the “Bacterial Biotransformation” value was “Compound NOT metabolized”.

Another series is described as follows: The drug is tested on Bacteroides vulgatus strain: ATCC8482 for biotransformation. The drug concentrations were measured before and after a 12-h incubation by liquid-chromatography-coupled mass spectrometry (LC–MS). The settings on record: phocaeicola vulgatus, 2 µM.
Turning to `CCCCC(=O)O[C@]1(C(=O)CO)[C@@H](C)C[C@H]2[C@@H]3CCC4=CC(=O)C=C[C@]4(C)[C@@]3(F)[C@@H](O)C[C@@]21C` [BETAMETHASONE VALERATE], the “Bacterial Biotransformation” value is on record as “Compound metabolized”.
As for `COC(=O)[C@H]1[C@H]2C[C@@H]3c4[nH]c5cc(OC)ccc5c4CCN3C[C@H]2C[C@@H](OC(=O)c2cc(OC)c(OC)c(OC)c2)[C@@H]1OC` [RESERPINE], the “Bacterial Biotransformation” value is “Compound NOT metabolized”.

For another series the following is noted: parabacteroides distasonis, 12 h, 2 µM.
Description: The drug is tested on Parabacteroides distasonis strain: ATCC8503 for biotransformation. The drug concentrations were measured before and after a 12-h incubation by liquid-chromatography-coupled mass spectrometry (LC–MS)
`CCCCC(=O)O[C@]1(C(=O)CO)[C@@H](C)C[C@H]2[C@@H]3CCC4=CC(=O)C=C[C@]4(C)[C@@]3(F)[C@@H](O)C[C@@]21C` [BETAMETHASONE VALERATE]: the “Bacterial Biotransformation” value is listed as “Compound metabolized”.
`COC(=O)[C@H]1[C@H]2C[C@@H]3c4[nH]c5cc(OC)ccc5c4CCN3C[C@H]2C[C@@H](OC(=O)c2cc(OC)c(OC)c(OC)c2)[C@@H]1OC` [RESERPINE]: the “Bacterial Biotransformation” value was “Compound NOT metabolized”.

A further series can be described thus: The drug is tested on Clostridium sporogenes strain: ATCC15579 for biotransformation. The drug concentrations were measured before and after a 12-h incubation by liquid-chromatography-coupled mass spectrometry (LC–MS). The settings on record: 2 µM.
Take `COC(=O)[C@H]1[C@H]2C[C@@H]3c4[nH]c5cc(OC)ccc5c4CCN3C[C@H]2C[C@@H](OC(=O)c2cc(OC)c(OC)c(OC)c2)[C@@H]1OC` [RESERPINE]: the “Bacterial Biotransformation” value is recorded as “Compound NOT metabolized”.

For a further series the following is noted: limosilactobacillus reuteri cf48-3a, 12 h, 2 µM.
Description: The drug is tested on Lactobacillus reuteri CF48-3A strain: BEI HM-102 for biotransformation. The drug concentrations were measured before and after a 12-h incubation by liquid-chromatography-coupled mass spectrometry (LC–MS)
As to `CCCCC(=O)O[C@]1(C(=O)CO)[C@@H](C)C[C@H]2[C@@H]3CCC4=CC(=O)C=C[C@]4(C)[C@@]3(F)[C@@H](O)C[C@@]21C` [BETAMETHASONE VALERATE], the “Bacterial Biotransformation” value is on record as “Compound metabolized”.
Consider `COC(=O)[C@H]1[C@H]2C[C@@H]3c4[nH]c5cc(OC)ccc5c4CCN3C[C@H]2C[C@@H](OC(=O)c2cc(OC)c(OC)c(OC)c2)[C@@H]1OC` [RESERPINE], for which the “Bacterial Biotransformation” value is given as “Compound NOT metabolized”.

A further series is described as follows: The drug is tested on Clostridium asparagiforme strain: DSM15981 for biotransformation. The drug concentrations were measured before and after a 12-h incubation by liquid-chromatography-coupled mass spectrometry (LC–MS). Details: dose 2 uM, timepoint 0 vs 12 hours. Type of series: ADME. The settings on record: enterocloster asparagiformis, 2 µM.
`CCCCC(=O)O[C@]1(C(=O)CO)[C@@H](C)C[C@H]2[C@@H]3CCC4=CC(=O)C=C[C@]4(C)[C@@]3(F)[C@@H](O)C[C@@]21C` [BETAMETHASONE VALERATE]: the “Bacterial Biotransformation” value was “Compound NOT metabolized”.
For `COC(=O)[C@H]1[C@H]2C[C@@H]3c4[nH]c5cc(OC)ccc5c4CCN3C[C@H]2C[C@@H](OC(=O)c2cc(OC)c(OC)c(OC)c2)[C@@H]1OC` [RESERPINE], the “Bacterial Biotransformation” value is listed as “Compound NOT metabolized”.

For a further series the following is noted: bacteroides stercoris, 12 h, 2 µM.
Description: The drug is tested on Bacteroides stercoris strain: ATCC43183 for biotransformation. The drug concentrations were measured before and after a 12-h incubation by liquid-chromatography-coupled mass spectrometry (LC–MS)
For `CCCCC(=O)O[C@]1(C(=O)CO)[C@@H](C)C[C@H]2[C@@H]3CCC4=CC(=O)C=C[C@]4(C)[C@@]3(F)[C@@H](O)C[C@@]21C` [BETAMETHASONE VALERATE], the “Bacterial Biotransformation” value is “Compound metabolized”.
As for `COC(=O)[C@H]1[C@H]2C[C@@H]3c4[nH]c5cc(OC)ccc5c4CCN3C[C@H]2C[C@@H](OC(=O)c2cc(OC)c(OC)c(OC)c2)[C@@H]1OC` [RESERPINE], the “Bacterial Biotransformation” value is recorded as “Compound NOT metabolized”.

For the next series the following is noted: anaerostipes sp., 12 h, 2 µM.
Description: The drug is tested on Anaerostipes sp. strain: fecal isolate for biotransformation. The drug concentrations were measured before and after a 12-h incubation by liquid-chromatography-coupled mass spectrometry (LC–MS)
`CCCCC(=O)O[C@]1(C(=O)CO)[C@@H](C)C[C@H]2[C@@H]3CCC4=CC(=O)C=C[C@]4(C)[C@@]3(F)[C@@H](O)C[C@@]21C` [BETAMETHASONE VALERATE]: the “Bacterial Biotransformation” value is recorded as “Compound NOT metabolized”.
In the case of `COC(=O)[C@H]1[C@H]2C[C@@H]3c4[nH]c5cc(OC)ccc5c4CCN3C[C@H]2C[C@@H](OC(=O)c2cc(OC)c(OC)c(OC)c2)[C@@H]1OC` [RESERPINE], the “Bacterial Biotransformation” value is recorded as “Compound NOT metabolized”.

The next series in a line: The drug is tested on Clostridium symbiosum strain: ATCC14940 for biotransformation. The drug concentrations were measured before and after a 12-h incubation by liquid-chromatography-coupled mass spectrometry (LC–MS). The settings on record: 2 µM.
In the case of `CCCCC(=O)O[C@]1(C(=O)CO)[C@@H](C)C[C@H]2[C@@H]3CCC4=CC(=O)C=C[C@]4(C)[C@@]3(F)[C@@H](O)C[C@@]21C` [BETAMETHASONE VALERATE], the “Bacterial Biotransformation” value was “Compound NOT metabolized”.

Another series is described as follows: The drug is tested on Bacteroides uniformis strain: ATCC8492 for biotransformation. The drug concentrations were measured before and after a 12-h incubation by liquid-chromatography-coupled mass spectrometry (LC–MS). The settings on record: 2 µM.
For `CCCCC(=O)O[C@]1(C(=O)CO)[C@@H](C)C[C@H]2[C@@H]3CCC4=CC(=O)C=C[C@]4(C)[C@@]3(F)[C@@H](O)C[C@@]21C` [BETAMETHASONE VALERATE], the “Bacterial Biotransformation” value is “Compound metabolized”.
Regarding `COC(=O)[C@H]1[C@H]2C[C@@H]3c4[nH]c5cc(OC)ccc5c4CCN3C[C@H]2C[C@@H](OC(=O)c2cc(OC)c(OC)c(OC)c2)[C@@H]1OC` [RESERPINE], the “Bacterial Biotransformation” value is recorded as “Compound NOT metabolized”.

A further series in a line: The drug is tested on Ruminococcus torques strain: ATCC27756 for biotransformation. The drug concentrations were measured before and after a 12-h incubation by liquid-chromatography-coupled mass spectrometry (LC–MS). The settings on record: 2 µM. The class given is ADME. Details: dose 2 uM, timepoint 0 vs 12 hours.
For the compound `COC(=O)[C@H]1[C@H]2C[C@@H]3c4[nH]c5cc(OC)ccc5c4CCN3C[C@H]2C[C@@H](OC(=O)c2cc(OC)c(OC)c(OC)c2)[C@@H]1OC` [RESERPINE], the “Bacterial Biotransformation” value is reported as “Compound NOT metabolized”.

Another series can be described thus: The drug is tested on Anaerotruncus colihominis strain: DSM17241 for biotransformation. The drug concentrations were measured before and after a 12-h incubation by liquid-chromatography-coupled mass spectrometry (LC–MS). The settings on record: 2 µM.
With `CCCCC(=O)O[C@]1(C(=O)CO)[C@@H](C)C[C@H]2[C@@H]3CCC4=CC(=O)C=C[C@]4(C)[C@@]3(F)[C@@H](O)C[C@@]21C` [BETAMETHASONE VALERATE], the “Bacterial Biotransformation” value is on record as “Compound NOT metabolized”.
As to `COC(=O)[C@H]1[C@H]2C[C@@H]3c4[nH]c5cc(OC)ccc5c4CCN3C[C@H]2C[C@@H](OC(=O)c2cc(OC)c(OC)c(OC)c2)[C@@H]1OC` [RESERPINE], the “Bacterial Biotransformation” value was “Compound NOT metabolized”.

A short description of another series: The drug is tested on Collinsella intestinalis strain: DSM13280 for biotransformation. The drug concentrations were measured before and after a 12-h incubation by liquid-chromatography-coupled mass spectrometry (LC–MS). The settings on record: 2 µM.
As for `CCCCC(=O)O[C@]1(C(=O)CO)[C@@H](C)C[C@H]2[C@@H]3CCC4=CC(=O)C=C[C@]4(C)[C@@]3(F)[C@@H](O)C[C@@]21C` [BETAMETHASONE VALERATE], the “Bacterial Biotransformation” value is listed as “Compound NOT metabolized”.
Consider `COC(=O)[C@H]1[C@H]2C[C@@H]3c4[nH]c5cc(OC)ccc5c4CCN3C[C@H]2C[C@@H](OC(=O)c2cc(OC)c(OC)c(OC)c2)[C@@H]1OC` [RESERPINE], for which the “Bacterial Biotransformation” value is recorded as “Compound NOT metabolized”.

The values above are taken from ChEMBL document CHEMBL5303573, “Mapping human microbiome drug metabolism by gut bacteria and their genes” (Nature, 2019).
